According to ChEMBL document CHEMBL5058649, “Data for DCP probe BAY 1816032” (2022):

How the values were obtained:
Homo sapiens [1] = species: Homo sapiens; assay: Inhibition of Phosphodiesterase PDE4 at compound concentration of 10.0 uM in the Eurofins-Panlabs enzyme assay (Eurofins_assay_154000); assay type: protein assay; design: substrate with concentration 1.01 uM [3 H]cAMP + cAMP, incubation time 20 min, incubation temperature 25 C; conditions: Compound concentration 10.0 uM
[2] = target: Adenosine Transporter (Cavia porcellus) (UniProt H0V4R7+H0UUG1+H0V3Z5); assay: Inhibition of Transporter, Adenosine at compound concentration of 10.0 uM in the Eurofins-Panlabs radioligand binding assay (Eurofins_assay_202000); assay type: protein assay; design: ligand concentration 0.5 nM, non-specific ligand with concentration 5 uM Nitrobenzylthioinosine, incubation time 30 min, incubation temperature 25 C; conditions: Compound concentration 10.0 uM
Rattus norvegicus = species: Rattus norvegicus; assay: GABAA, Ro-15-1788, Hippocampus Eurofins-Panlabs radioligand binding assay; design: ligand concentration 1 nM; conditions: Compound concentration 10.0 uM
Homo sapiens [3] = species: Homo sapiens; assay: Glutamate, Metabotropic, mGlu5 Eurofins-Panlabs radioligand binding assay; conditions: Compound concentration 10.0 uM
[4] = target: Prostaglandin G/H synthase 2 (Homo sapiens) (UniProt P35354); assay: Cyclooxygenase COX-2 Eurofins-Panlabs enzyme assay; design: substrate with concentration; conditions: Compound concentration 10.0 uM
[5] = target: Serine/threonine-protein kinase MRCK gamma (Homo sapiens, UniProt Q6DT37); assay: DMPK2 DiscoveRx kinase panel
[6] = target: Citron Rho-interacting kinase (Homo sapiens) (UniProt O14578); assay: CIT DiscoveRx kinase panel; conditions: Compound concentration 1.0 uM
[7] = target: TGF-beta receptor type-1 (Homo sapiens) (UniProt P36897); assay: TGFBR1 DiscoveRx kinase panel; conditions: Compound concentration 1.0 uM
[8] = target: Dual specificity testis-specific protein kinase 1 (Homo sapiens) (UniProt Q15569); assay: TESK1 DiscoveRx kinase panel; conditions: Compound concentration 1.0 uM
[9] = target: Microtubule-associated serine/threonine-protein kinase 1 (Homo sapiens) (UniProt Q9Y2H9); assay: MAST1 DiscoveRx kinase panel; conditions: Compound concentration 1.0 uM
[10] = target: Casein kinase I isoform gamma-1 (Homo sapiens) (UniProt Q9HCP0); assay: CSNK1G1 DiscoveRx kinase panel; conditions: Compound concentration 1.0 uM
[11] = target: Mitogen-activated protein kinase 11 (Homo sapiens) (UniProt Q15759); assay: p38-beta DiscoveRx kinase panel; conditions: Compound concentration 1.0 uM
[12] = target: Tyrosine-protein kinase Mer (Homo sapiens) (UniProt Q12866); assay: MERTK DiscoveRx kinase panel; conditions: Compound concentration 1.0 uM
[13] = target: Death-associated protein kinase 2 (Homo sapiens) (UniProt Q9UIK4); assay: DAPK2 DiscoveRx kinase panel; conditions: Compound concentration 1.0 uM
[14] = target: Ephrin type-A receptor 3 (Homo sapiens) (UniProt P29320); assay: EPHA3 DiscoveRx kinase panel; conditions: Compound concentration 1.0 uM
[15] = target: Serine/threonine-protein kinase WNK1 (Homo sapiens) (UniProt Q9H4A3); assay: WNK1 DiscoveRx kinase panel; conditions: Compound concentration 1.0 uM
[16] = target: Mitogen-activated protein kinase kinase kinase 12 (Homo sapiens) (UniProt Q12852); assay: DLK DiscoveRx kinase panel; conditions: Compound concentration 1.0 uM
[17] = target: Tyrosine-protein kinase JAK3 (Homo sapiens) (UniProt P52333); assay: JAK3(JH1domain-catalytic) DiscoveRx kinase panel; conditions: Compound concentration 1.0 uM
[18] = target: Serine/threonine-protein kinase WNK3 (Homo sapiens) (UniProt Q9BYP7); assay: WNK3 DiscoveRx kinase panel; conditions: Compound concentration 1.0 uM
[19] = target: Serine/threonine-protein kinase Nek5 (Homo sapiens) (UniProt Q6P3R8); assay: NEK5 DiscoveRx kinase panel; conditions: Compound concentration 1.0 uM
[20] = target: Serine/threonine-protein kinase NIM1 (Homo sapiens) (UniProt Q8IY84); assay: NIM1 DiscoveRx kinase panel; conditions: Compound concentration 1.0 uM
[21] = target: Serine/threonine-protein kinase Nek2 (Homo sapiens) (UniProt P51955); assay: NEK2 DiscoveRx kinase panel; conditions: Compound concentration 1.0 uM
[22] = target: Serine/threonine-protein kinase Sgk1 (Homo sapiens) (UniProt O00141); assay: SGK DiscoveRx kinase panel; conditions: Compound concentration 1.0 uM
[23] = target: Tyrosine-protein kinase ABL1 (Homo sapiens) (UniProt P00519); assay: ABL1-phosphorylated DiscoveRx kinase panel; conditions: Compound concentration 1.0 uM
[24] = target: Dual specificity mitogen-activated protein kinase kinase 2 (Homo sapiens) (UniProt P36507); assay: MEK2 DiscoveRx kinase panel; conditions: Compound concentration 1.0 uM
[25] = target: Serine/threonine-protein kinase tousled-like 2 (Homo sapiens) (UniProt Q86UE8); assay: TLK2 DiscoveRx kinase panel; conditions: Compound concentration 1.0 uM
[26] = target: Serine/threonine-protein kinase N2 (Homo sapiens) (UniProt Q16513); assay: PKN2 DiscoveRx kinase panel; conditions: Compound concentration 1.0 uM
[27] = target: Wee1-like protein kinase 2 (Homo sapiens) (UniProt P0C1S8); assay: WEE2 DiscoveRx kinase panel; conditions: Compound concentration 1.0 uM
[28] = target: Cyclin-dependent kinase 9 (Homo sapiens) (UniProt P50750); assay: CDK9 DiscoveRx kinase panel; conditions: Compound concentration 1.0 uM
[29] = target: Casein kinase I isoform alpha (Homo sapiens) (UniProt P48729); assay: CSNK1A1 DiscoveRx kinase panel; conditions: Compound concentration 1.0 uM
[30] = target: Calcium/calmodulin-dependent protein kinase kinase 2 (Homo sapiens) (UniProt Q96RR4); assay: CAMKK2 DiscoveRx kinase panel; conditions: Compound concentration 1.0 uM
[31] = target: Dual specificity protein kinase CLK2 (Homo sapiens) (UniProt P49760); assay: CLK2 DiscoveRx kinase panel; conditions: Compound concentration 1.0 uM
[32] = target: Death-associated protein kinase 1 (Homo sapiens) (UniProt P53355); assay: DAPK1 DiscoveRx kinase panel; conditions: Compound concentration 1.0 uM
[33] = target: Receptor tyrosine-protein kinase erbB-2 (Homo sapiens) (UniProt P04626); assay: ERBB2 DiscoveRx kinase panel; conditions: Compound concentration 1.0 uM
[34] = target: Inhibitor of nuclear factor kappa-B kinase subunit alpha (Homo sapiens) (UniProt O15111); assay: IKK-alpha DiscoveRx kinase panel; conditions: Compound concentration 1.0 uM
[35] = target: Tyrosine-protein kinase JAK2 (Homo sapiens) (UniProt O60674); assay: JAK2(JH1domain-catalytic) DiscoveRx kinase panel; conditions: Compound concentration 1.0 uM
[36] = target: Serine/threonine-protein kinase Nek3 (Homo sapiens) (UniProt P51956); assay: NEK3 DiscoveRx kinase panel; conditions: Compound concentration 1.0 uM
[37] = target: Serine/threonine-protein kinase pim-2 (Homo sapiens) (UniProt Q9P1W9); assay: PIM2 DiscoveRx kinase panel; conditions: Compound concentration 1.0 uM
[38] = target: Ribosomal protein S6 kinase alpha-1 (Homo sapiens) (UniProt Q15418); assay: RSK1(Kin.Dom.2-C-terminal) DiscoveRx kinase panel; conditions: Compound concentration 1.0 uM
[39] = target: Uncharacterized serine/threonine-protein kinase SBK3 (Homo sapiens) (UniProt P0C264); assay: SgK110 DiscoveRx kinase panel; conditions: Compound concentration 1.0 uM
[40] = target: Serine/threonine-protein kinase TAO3 (Homo sapiens) (UniProt Q9H2K8); assay: TAOK3 DiscoveRx kinase panel; conditions: Compound concentration 1.0 uM
[41] = target: Tyrosine-protein kinase Tec (Homo sapiens) (UniProt P42680); assay: TEC DiscoveRx kinase panel; conditions: Compound concentration 1.0 uM
[42] = target: Non-receptor tyrosine-protein kinase TYK2 (Homo sapiens) (UniProt P29597); assay: TYK2(JH1domain-catalytic) DiscoveRx kinase panel; conditions: Compound concentration 1.0 uM
[43] = target: Serine/threonine-protein kinase ULK2 (Homo sapiens) (UniProt Q8IYT8); assay: ULK2 DiscoveRx kinase panel; conditions: Compound concentration 1.0 uM
[44] = target: Tyrosine-protein kinase Yes (Homo sapiens) (UniProt P07947); assay: YES DiscoveRx kinase panel; conditions: Compound concentration 1.0 uM
SK-BR-3 = assay: SK-BR-3 cell line Proliferation assay; assay type: functional, Homo sapiens; conditions: time 4 day
HT1197 = assay: HT-1197 cell line Proliferation assay; assay type: functional, Homo sapiens; conditions: time 4 day
[45] = target: Mu-type opioid receptor (Homo sapiens) (UniProt P35372); conditions: Compound concentration 10.0 uM
[46] = target: Alpha-1A adrenergic receptor (Homo sapiens) (UniProt P35348); conditions: Rattus norvegicus; Compound concentration 10.0 uM
[47] = target: Androgen receptor (Homo sapiens) (UniProt P10275); conditions: Compound concentration 10.0 uM

Sequence of Serine/threonine-protein kinase MRCK gamma (Q6DT37 whole entry): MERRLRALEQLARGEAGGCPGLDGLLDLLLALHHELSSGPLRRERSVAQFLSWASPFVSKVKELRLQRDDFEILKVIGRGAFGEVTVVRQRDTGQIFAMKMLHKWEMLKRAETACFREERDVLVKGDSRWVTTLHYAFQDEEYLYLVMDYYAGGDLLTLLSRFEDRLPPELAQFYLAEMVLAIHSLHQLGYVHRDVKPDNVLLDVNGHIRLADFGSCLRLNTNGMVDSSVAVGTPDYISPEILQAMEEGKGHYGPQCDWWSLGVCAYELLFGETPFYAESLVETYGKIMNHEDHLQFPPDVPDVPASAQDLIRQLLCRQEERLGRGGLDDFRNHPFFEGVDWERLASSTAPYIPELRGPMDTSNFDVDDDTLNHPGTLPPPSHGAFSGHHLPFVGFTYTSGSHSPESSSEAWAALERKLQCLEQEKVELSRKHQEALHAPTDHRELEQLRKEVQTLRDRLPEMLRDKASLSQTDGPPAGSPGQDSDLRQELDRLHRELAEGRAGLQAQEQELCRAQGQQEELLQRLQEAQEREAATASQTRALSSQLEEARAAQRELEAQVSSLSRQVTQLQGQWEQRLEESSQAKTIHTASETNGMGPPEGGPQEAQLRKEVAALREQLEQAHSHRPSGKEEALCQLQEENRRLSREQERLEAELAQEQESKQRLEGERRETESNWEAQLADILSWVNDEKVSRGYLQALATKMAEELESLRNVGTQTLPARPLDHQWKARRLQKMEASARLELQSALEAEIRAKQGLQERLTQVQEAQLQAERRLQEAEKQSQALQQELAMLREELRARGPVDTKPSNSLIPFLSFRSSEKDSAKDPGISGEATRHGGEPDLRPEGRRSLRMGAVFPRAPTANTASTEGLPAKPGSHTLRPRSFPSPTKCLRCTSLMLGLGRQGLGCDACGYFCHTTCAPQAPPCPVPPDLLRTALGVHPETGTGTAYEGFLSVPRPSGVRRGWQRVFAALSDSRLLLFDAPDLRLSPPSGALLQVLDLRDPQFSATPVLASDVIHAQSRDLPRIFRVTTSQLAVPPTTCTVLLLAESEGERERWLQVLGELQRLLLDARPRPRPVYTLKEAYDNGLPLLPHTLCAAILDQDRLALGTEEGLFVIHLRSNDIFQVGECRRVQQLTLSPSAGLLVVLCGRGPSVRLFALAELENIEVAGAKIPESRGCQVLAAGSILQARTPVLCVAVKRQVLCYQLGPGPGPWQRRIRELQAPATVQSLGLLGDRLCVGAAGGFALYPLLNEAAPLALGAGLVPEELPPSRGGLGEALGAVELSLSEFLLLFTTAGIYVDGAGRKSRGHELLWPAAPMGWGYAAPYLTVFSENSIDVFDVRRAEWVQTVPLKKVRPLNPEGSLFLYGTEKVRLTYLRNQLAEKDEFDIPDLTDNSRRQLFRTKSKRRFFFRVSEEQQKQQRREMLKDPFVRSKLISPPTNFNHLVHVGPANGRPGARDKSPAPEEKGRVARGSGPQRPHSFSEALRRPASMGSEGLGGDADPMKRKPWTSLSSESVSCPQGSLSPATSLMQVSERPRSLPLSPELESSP
Sequence of Uncharacterized serine/threonine-protein kinase SBK3 (Homo sapiens) (P0C264 whole entry): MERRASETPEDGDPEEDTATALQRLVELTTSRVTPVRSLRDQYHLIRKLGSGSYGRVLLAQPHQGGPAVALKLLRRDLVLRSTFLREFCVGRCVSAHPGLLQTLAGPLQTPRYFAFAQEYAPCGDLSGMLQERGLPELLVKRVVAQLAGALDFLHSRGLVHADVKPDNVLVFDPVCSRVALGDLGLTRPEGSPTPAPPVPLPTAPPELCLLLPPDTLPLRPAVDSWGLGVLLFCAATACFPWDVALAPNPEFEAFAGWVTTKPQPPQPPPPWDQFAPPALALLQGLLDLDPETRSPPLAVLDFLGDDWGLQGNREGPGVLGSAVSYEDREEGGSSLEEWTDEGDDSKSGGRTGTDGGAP
Sequence of Wee1-like protein kinase 2 (Homo sapiens) (P0C1S8 whole entry, looked up): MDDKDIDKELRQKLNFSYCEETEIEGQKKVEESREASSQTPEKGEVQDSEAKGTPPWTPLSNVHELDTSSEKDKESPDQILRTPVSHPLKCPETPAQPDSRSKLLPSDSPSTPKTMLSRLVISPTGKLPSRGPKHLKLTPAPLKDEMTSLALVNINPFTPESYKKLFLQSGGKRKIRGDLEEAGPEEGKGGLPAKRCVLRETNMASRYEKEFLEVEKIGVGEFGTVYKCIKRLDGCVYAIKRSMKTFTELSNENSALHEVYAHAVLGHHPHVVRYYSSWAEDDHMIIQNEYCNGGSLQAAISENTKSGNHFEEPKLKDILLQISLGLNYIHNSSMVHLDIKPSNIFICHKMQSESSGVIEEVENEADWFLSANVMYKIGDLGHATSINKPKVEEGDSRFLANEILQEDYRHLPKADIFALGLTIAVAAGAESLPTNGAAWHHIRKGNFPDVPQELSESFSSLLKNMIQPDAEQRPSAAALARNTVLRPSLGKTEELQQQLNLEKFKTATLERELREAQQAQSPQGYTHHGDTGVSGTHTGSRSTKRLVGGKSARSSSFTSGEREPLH
Sequence of Ephrin type-A receptor 3 (Homo sapiens) (P29320 whole entry): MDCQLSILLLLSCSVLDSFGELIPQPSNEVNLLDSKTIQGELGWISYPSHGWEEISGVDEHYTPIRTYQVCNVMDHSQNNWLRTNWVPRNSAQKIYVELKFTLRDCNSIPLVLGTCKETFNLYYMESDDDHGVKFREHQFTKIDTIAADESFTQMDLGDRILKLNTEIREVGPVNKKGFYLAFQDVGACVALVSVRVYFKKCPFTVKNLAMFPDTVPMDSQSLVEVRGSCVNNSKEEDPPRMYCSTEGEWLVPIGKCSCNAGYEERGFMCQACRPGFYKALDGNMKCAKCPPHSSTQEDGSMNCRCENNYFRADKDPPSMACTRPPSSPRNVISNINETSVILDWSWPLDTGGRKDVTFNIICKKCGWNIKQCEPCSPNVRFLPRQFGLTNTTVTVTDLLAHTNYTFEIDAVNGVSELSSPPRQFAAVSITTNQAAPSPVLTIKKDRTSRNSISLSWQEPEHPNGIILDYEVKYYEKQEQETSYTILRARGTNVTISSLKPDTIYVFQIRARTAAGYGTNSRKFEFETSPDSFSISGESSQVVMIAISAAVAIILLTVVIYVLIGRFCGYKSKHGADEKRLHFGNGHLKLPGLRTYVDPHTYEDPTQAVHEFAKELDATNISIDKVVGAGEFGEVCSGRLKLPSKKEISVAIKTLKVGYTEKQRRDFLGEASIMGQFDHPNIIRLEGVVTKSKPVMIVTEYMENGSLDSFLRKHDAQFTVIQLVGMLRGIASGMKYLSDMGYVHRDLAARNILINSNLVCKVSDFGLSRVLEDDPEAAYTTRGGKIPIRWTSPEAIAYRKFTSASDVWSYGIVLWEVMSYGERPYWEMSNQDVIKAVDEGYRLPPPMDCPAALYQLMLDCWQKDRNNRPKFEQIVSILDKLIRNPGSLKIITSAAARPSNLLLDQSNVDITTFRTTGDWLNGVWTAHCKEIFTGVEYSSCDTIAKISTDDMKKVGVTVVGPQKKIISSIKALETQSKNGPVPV
Sequence of Receptor tyrosine-protein kinase erbB-2 (Homo sapiens) (P04626 whole entry): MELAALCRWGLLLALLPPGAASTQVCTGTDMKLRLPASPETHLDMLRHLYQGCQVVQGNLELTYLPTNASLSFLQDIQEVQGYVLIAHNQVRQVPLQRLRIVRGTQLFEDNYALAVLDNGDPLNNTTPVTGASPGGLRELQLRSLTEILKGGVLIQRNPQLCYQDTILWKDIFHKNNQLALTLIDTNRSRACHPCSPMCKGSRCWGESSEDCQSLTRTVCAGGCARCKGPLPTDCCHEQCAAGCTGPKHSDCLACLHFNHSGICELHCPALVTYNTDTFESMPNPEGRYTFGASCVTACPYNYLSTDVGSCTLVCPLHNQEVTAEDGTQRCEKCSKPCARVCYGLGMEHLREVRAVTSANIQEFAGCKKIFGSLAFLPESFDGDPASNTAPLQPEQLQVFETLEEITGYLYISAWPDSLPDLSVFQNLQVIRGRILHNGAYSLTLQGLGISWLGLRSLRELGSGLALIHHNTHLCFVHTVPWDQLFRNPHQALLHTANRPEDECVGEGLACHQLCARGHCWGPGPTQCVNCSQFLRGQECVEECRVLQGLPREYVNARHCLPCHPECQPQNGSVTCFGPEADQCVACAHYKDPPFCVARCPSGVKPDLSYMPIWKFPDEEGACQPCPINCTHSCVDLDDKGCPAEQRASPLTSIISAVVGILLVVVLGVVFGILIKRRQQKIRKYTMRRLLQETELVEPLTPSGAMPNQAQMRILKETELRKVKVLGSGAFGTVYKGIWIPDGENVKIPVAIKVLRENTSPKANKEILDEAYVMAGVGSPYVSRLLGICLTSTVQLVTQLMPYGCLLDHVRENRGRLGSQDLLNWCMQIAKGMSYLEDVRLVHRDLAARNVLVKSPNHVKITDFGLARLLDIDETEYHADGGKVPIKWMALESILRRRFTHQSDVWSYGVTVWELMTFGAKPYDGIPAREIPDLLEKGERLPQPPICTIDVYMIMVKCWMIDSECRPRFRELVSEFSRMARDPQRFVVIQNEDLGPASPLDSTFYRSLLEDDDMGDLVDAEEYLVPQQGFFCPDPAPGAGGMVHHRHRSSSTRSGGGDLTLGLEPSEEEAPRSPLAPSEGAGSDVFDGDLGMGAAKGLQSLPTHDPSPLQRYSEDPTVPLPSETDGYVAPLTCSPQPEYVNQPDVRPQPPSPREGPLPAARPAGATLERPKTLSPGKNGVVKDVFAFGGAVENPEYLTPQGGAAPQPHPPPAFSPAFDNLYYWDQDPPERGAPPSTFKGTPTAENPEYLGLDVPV
Sequence of Death-associated protein kinase 2 (Homo sapiens) (Q9UIK4 whole entry, looked up): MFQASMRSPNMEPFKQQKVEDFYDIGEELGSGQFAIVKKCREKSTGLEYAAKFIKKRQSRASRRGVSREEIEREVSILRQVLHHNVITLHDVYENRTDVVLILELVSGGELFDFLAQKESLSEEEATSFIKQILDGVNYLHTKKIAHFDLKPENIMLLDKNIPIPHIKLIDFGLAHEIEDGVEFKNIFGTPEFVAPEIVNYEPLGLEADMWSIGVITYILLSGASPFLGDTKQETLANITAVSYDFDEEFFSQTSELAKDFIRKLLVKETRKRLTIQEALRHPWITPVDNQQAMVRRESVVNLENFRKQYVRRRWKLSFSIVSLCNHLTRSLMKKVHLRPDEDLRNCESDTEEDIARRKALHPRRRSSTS

## COc1cnccc1Nc1nc(-c2nn(Cc3c(F)cc(OCCO)cc3F)c3ccccc23)ncc1OC
Homo sapiens [1]
  inhibition: 52%
[2]
  inhibition: 71%
Rattus norvegicus
  inhibition: 22%
Homo sapiens [3]
  inhibition: 17%
[4]
  inhibition: -9%
[5]
  Kd: 850 nM
[5]; Compound concentration 1.0 uM
  residual activity: 22%
[6]
  residual activity: 52%
[7]
  residual activity: 53%
[8]
  residual activity: 57%
[9]
  residual activity: 63%
[10]
  residual activity: 74%
[11]
  residual activity: 82%
[12]
  residual activity: 83%
[13]
  residual activity: 85%
[14]
  residual activity: 85%
[15]
  residual activity: 85%
[16]
  residual activity: 87%
[17]
  residual activity: 87%
[18]
  residual activity: 87%
[19]
  residual activity: 88%
[20]
  residual activity: 88%
[21]
  residual activity: 90%
[22]
  residual activity: 93%
[23]
  residual activity: 94%
[24]
  residual activity: 94%
[25]
  residual activity: 96%
[26]
  residual activity: 97%
[27]
  residual activity: 97%
[28]
  residual activity: 99%
[29]
  residual activity: 99%
[30]
  residual activity: 100%
[31]
  residual activity: 100%
[32]
  residual activity: 100%
[33]
  residual activity: 100%
[34]
  residual activity: 100%
[35]
  residual activity: 100%
[36]
  residual activity: 100%
[37]
  residual activity: 100%
[38]
  residual activity: 100%
[39]
  residual activity: 100%
[40]
  residual activity: 100%
[41]
  residual activity: 100%
[42]
  residual activity: 100%
[43]
  residual activity: 100%
[44]
  residual activity: 100%
SK-BR-3
  Cell Proliferation IC50: 1100 nM
HT1197
  Cell Proliferation IC50: 4900 nM
[45]
  inhibition: -4.25%
[46]
  inhibition: 8%
[47]
  inhibition: 9%
